Experimental findings from US11305017B2, “Anti-fugetactic agent and anti-cancer agent combination therapy and compositions for the treatment of cancer” (The General Hospital Corporation, priority 2015, dated 2022) are described below.

Structures are written as SMILES.

This test concerns tumor that expresses high levels of CXCL12. The test is described as follows: Tumor growth in mice bearing a subcutaneous CXCL12-expressing tumor.

As to `CC(=O)O[C@H]1C(=O)[C@@]2(C)[C@H]([C@H](OC(=O)c3ccccc3)[C@]3(O)C[C@H](OC(=O)[C@H](O)[C@@H](NC(=O)c4ccccc4)c4ccccc4)C(C)=C1C3(C)C)[C@]1(OC(C)=O)CO[C@@H]1C[C@@H]2O` [TAX, paclitaxel], the Tumor growth result (12.5 mg/kg paclitaxel (TAX) intraperitoneal, 18 hours prior to assay, mice not administered AMD3100) is recorded as “delayed by TAX treatment, but resumes soon after the treatment is discontinued”.
As for `c1cc(CN2CCCNCCNCCCNCC2)ccc1CN1CCCNCCNCCCNCC1` [AMD3100], the “Delay in tumor growth, co-treatment versus TAX alone” value (AMD3100 subcutaneous once a day for 5 days, then 12.5 mg/kg TAX intraperitoneal one to three days after the final dose) is listed as “synergistic effect”.
